PubChem BioAssay (NCI)
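GI50 = concentration required for 50% inhibition of growth. TGI is the concentration that stops growth completely.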

How the values were obtained:
Experiment in all cases: growth of human tumour cells (NCI), 384-well format
[1] = system: A549 NSCLC
[2] = system: M14 melanoma
[3] = system: OVCAR-4 ovarian
[4] = system: HS 578T breast
[5] = system: OVCAR-5 ovarian
[6] = system: NCI-H322M lung
[7] = system: RXF 393 renal
[8] = system: TK-10 renal
[9] = system: SK-MEL-28 melanoma
[10] = system: UACC-257 melanoma
[11] = system: LOX IMVI melanoma
[12] = system: BT-549 breast
[13] = system: UACC-62 melanoma
[14] = system: OVCAR-3 ovarian
[15] = system: KM12 colon
[16] = system: SF-539 CNS
[17] = system: NCI/ADR-RES ovarian
[18] = system: HOP-62 NSCLC
[19] = system: HCT-15 colon
[20] = system: MALME-3M melanoma
[21] = system: SN12C renal
[22] = system: EKVX NSCLC
[23] = system: SNB-19 CNS
[24] = system: CAKI-1 renal
[25] = system: NCI-H226 lung
[26] = system: HCC-2998 colon
[27] = system: NCI-H23 lung
[28] = system: IGROV1 ovarian
[29] = system: OVCAR-8 ovarian
[30] = system: DU-145 prostate
[31] = system: MOLT-4 leukemia
[32] = system: T-47D breast
[33] = system: MCF7 breast
[34] = system: SR leukemia
[35] = system: HT29 colon
[36] = system: SF-295 CNS
[37] = system: SNB-75 CNS
[38] = system: COLO 205 colon
[39] = system: HCT-116 colon
[40] = system: SF-268 CNS
[41] = system: PC-3 prostate
[42] = system: ACHN renal
[43] = system: SK-MEL-5 melanoma
[44] = system: HL-60(TB) leukemia
[45] = system: RPMI-8226 leukemia
[46] = system: A498 renal
[47] = system: MDA-MB-435 melanoma
[48] = system: NCI-H522 lung
[49] = system: U251 glioblastoma
[50] = system: MDA-MB-231 breast
[51] = system: NCI-H460 NSCLC
[52] = system: MDA-MB-468 breast
[53] = system: HOP-92 NSCLC

Cn1cc(-c2[nH]c3cc(NC(=O)[C@H](N)C4CCCCC4)cc4c3c2C=NNC4=O)cn1
GI50 [1]: 4660 nM | TGI [1]: 17300 nM | GI50 [2]: 195 nM | TGI [2]: 402 nM | GI50 [3]: 29.6 nM | TGI [3]: 93.9 nM | GI50 [4]: 191 nM | TGI [4]: 847 nM | GI50 [5]: 326 nM | TGI [5]: 953 nM | GI50 [6]: 198 nM | TGI [6]: 894 nM | GI50 [7]: 211 nM | TGI [7]: 689 nM | GI50 [8]: 222 nM | TGI [8]: 515 nM | GI50 [9]: 761 nM | TGI [9]: 16400 nM | GI50 [10]: 1420 nM | TGI [10]: 6260 nM | GI50 [11]: 312 nM | TGI [11]: 1060 nM | GI50 [12]: 152 nM | TGI [12]: 362 nM | GI50 [13]: 486 nM | TGI [13]: 18200 nM | GI50 [14]: 49.6 nM | TGI [14]: 209 nM | GI50 [15]: 466 nM | TGI [15]: 8760 nM | GI50 [16]: 38.1 nM | TGI [16]: 156 nM | GI50 [17]: 4970 nM | TGI [17]: 23100 nM | GI50 [18]: 203 nM | TGI [18]: 483 nM | GI50 [19]: 2720 nM | TGI [19]: 9180 nM | GI50 [20]: 781 nM | TGI [20]: 17400 nM | GI50 [21]: 200 nM | TGI [21]: 856 nM | GI50 [22]: 538 nM | TGI [22]: 11400 nM | GI50 [23]: 299 nM | TGI [23]: 1090 nM | GI50 [24]: 531 nM | TGI [24]: 12400 nM | GI50 [25]: 636 nM | TGI [25]: 3950 nM | GI50 [26]: 42 nM | TGI [26]: 227 nM | GI50 [27]: 276 nM | TGI [27]: 1740 nM | GI50 [28]: 275 nM | TGI [28]: 960 nM | GI50 [29]: 153 nM | TGI [29]: 359 nM | GI50 [30]: 359 nM | TGI [30]: 12400 nM | GI50 [31]: 201 nM | TGI [31]: 347 nM | GI50 [32]: 12200 nM | TGI [32]: 24700 nM | GI50 [33]: 176 nM | TGI [33]: 12700 nM | TGI [34]: 27.2 nM | GI50 [35]: 1030 nM | TGI [35]: 2580 nM | GI50 [36]: 339 nM | TGI [36]: 2300 nM | GI50 [37]: 506 nM | TGI [37]: 2990 nM | GI50 [38]: 489 nM | TGI [38]: 1710 nM | GI50 [39]: 427 nM | TGI [39]: 6280 nM | GI50 [40]: 169 nM | TGI [40]: 10900 nM | GI50 [41]: 768 nM | TGI [41]: 13400 nM | GI50 [42]: 314 nM | TGI [42]: 954 nM | GI50 [43]: 175 nM | TGI [43]: 407 nM | GI50 [44]: 204 nM | TGI [44]: 353 nM | GI50 [45]: 1920 nM | TGI [45]: 3370 nM | GI50 [46]: 91.6 nM | TGI [46]: 277 nM | GI50 [47]: 166 nM | TGI [47]: 340 nM | GI50 [48]: 219 nM | TGI [48]: 627 nM | GI50 [49]: 320 nM | TGI [49]: 1520 nM | GI50 [50]: 599 nM | TGI [50]: 9620 nM | GI50 [51]: 3090 nM | TGI [51]: 11100 nM | GI50 [52]: 186 nM | TGI [52]: 426 nM | GI50 [53]: 111 nM | TGI [53]: 5430 nM
